Assay results from publication PMC12238723, “Phase I Clinical Trial of CVL218, a Novel PARP1/2 Inhibitor, in Patients with Advanced Solid Tumors” (MedComm, 2025).

Test system: advanced solid tumors
Test: Antitumor activity, tumor response per RECIST 1.1 and PFS
Format: in vivo, patients
Description: This study was a single‐arm, dose‐escalation phase I trial conducted in Sun Yat‐sen University Cancer Center in China. This study assessed CVL218 in patients with histologically or cytologically confirmed advanced solid tumors who were in PD after standard therapeutic regimens or lacked standard treatment options. Inclusion criteria included: age 18–75 years; with at least one measurable and evaluable target lesion per Response Evaluation Criteria in Solid Tumors 1.1 (RECIST 1.1); ECOG performance status of 0 or 1; adequate hematological, renal, cardiac, and hepatic functions and a life expectancy ≥12 weeks. Key exclusion criteria included prior usage of PARP inhibitors; allergic to the research drug or its components; with active, unstable systemic diseases or active, uncontrolled infection; a history of other malignancies within 5 years, and pregnant or lactating women.
Single‐dose and multiple‐dose PK parameters included C max, T max, elimination half‐life (T 1/2), AUC0– t , AUC0–inf, oral clearance (CL/F), and apparent volume of distribution (V z/F) for CVL218. Tumor response was assessed per RECIST 1.1. ORR was defined as proportion of patients with a CR or PR on at least one visit, while DCR was defined as proportion of patients with a CR or PR or SD. PFS was defined as the time from the first dose of either drug to investigator assessed radiologic PD or to death of any cause. PFS would be censored at the time of last tumor assessment.
Subjects who received at least one dose of CVL218 with postadministration safety records were included in safety analysis set. Subjects who received at least one dose of CVL218 with at least one evaluable PK parameter were included in PK analysis set. Per‐protocol set were used for efficacy analysis. Descriptive statistics of safety were presented per CTCAE v5.0. The PK parameters T max and T 1/2 were shown as the median (min, max) and mean ± SD, respectively. A two‐sided p < 0.05 was considered to indicate statistical significance. Statistical analysis was performed by using GraphPad prism 8.0.2 and R‐4.3.3.

SMILES: CNCc1ccc(-c2cc3cc(F)cc(C(N)=O)c3o2)cc1.Cl [CVL218]
- BOR, CR (50 mg BID (N = 1)): 0 n (%)
- BOR, PD (50 mg BID (N = 1)): 1 (100) n (%)
- BOR, PR (50 mg BID (N = 1)): 0 n (%)
- DCR (50 mg BID (N = 1)): 0 (0, 97.50) n (%) (95%CI)
- ORR (50 mg BID (N = 1)): 0 (0, 97.5) n (%) (95%CI)
- mPFS (50 mg BID (N = 1)): 1.05 months
- BOR, CR (100 mg BID (N = 1)): 0 n (%)
- BOR, PD (100 mg BID (N = 1)): 1 (100) n (%)
- BOR, PR (100 mg BID (N = 1)): 0 n (%)
- DCR (100 mg BID (N = 1)): 0 (0, 97.50) n (%) (95%CI)
- ORR (100 mg BID (N = 1)): 0 (0, 97.5) n (%) (95%CI)
- mPFS (100 mg BID (N = 1)): 1.05 months
- BOR, CR (200 mg BID (N = 1)): 0 n (%)
- BOR, PD (200 mg BID (N = 1)): 0 n (%)
- BOR, PR (200 mg BID (N = 1)): 0 n (%)
- DCR (200 mg BID (N = 1)): 1 (100) (2.5, 100.0) n (%) (95%CI)
- ORR (200 mg BID (N = 1)): 0 (0, 97.5) n (%) (95%CI)
- mPFS (200 mg BID (N = 1)): 1.97 months
- BOR, CR (350 mg BID (N = 4)): 0 n (%)
- BOR, PD (350 mg BID (N = 4)): 1 (25.0) n (%)
- BOR, PR (350 mg BID (N = 4)): 0 n (%)
- DCR (350 mg BID (N = 4)): 3 (75.0) (19.4, 99.4) n (%) (95%CI)
- ORR (350 mg BID (N = 4)): 0 (0, 60.2) n (%) (95%CI)
- mPFS (350 mg BID (N = 4)): 2.34 months
- BOR, CR (500 mg BID (N = 4)): 0 n (%)
- BOR, PD (500 mg BID (N = 4)): 1 (25.0) n (%)
- BOR, PR (500 mg BID (N = 4)): 0 n (%)
- DCR (500 mg BID (N = 4)): 3 (75.0) (19.4, 99.4) n (%) (95%CI)
- ORR (500 mg BID (N = 4)): 0 (0, 60.2) n (%) (95%CI)
- mPFS (500 mg BID (N = 4)): 3.27 months
- BOR, CR (600 mg BID (N = 3)): 0 n (%)
- BOR, PD (600 mg BID (N = 3)): 3 (100) n (%)
- BOR, PR (600 mg BID (N = 3)): 0 n (%)
- DCR (600 mg BID (N = 3)): 0 (0, 70.8) n (%) (95%CI)
- ORR (600 mg BID (N = 3)): 0 (0, 70.8) n (%) (95%CI)
- mPFS (600 mg BID (N = 3)): 1.02 months
- BOR, CR (700 mg BID (N = 6)): 0 n (%)
- BOR, PD (700 mg BID (N = 6)): 0 n (%)
- BOR, PR (700 mg BID (N = 6)): 0 n (%)
- DCR (700 mg BID (N = 6)): 6 (100) (54.1, 100.0) n (%) (95%CI)
- ORR (700 mg BID (N = 6)): 0 (0, 45.9) n (%) (95%CI)
- mPFS (700 mg BID (N = 6)): 2.27 months
- BOR, CR (850 mg BID (N = 4)): 0 n (%)
- BOR, PD (850 mg BID (N = 4)): 0 n (%)
- BOR, PR (850 mg BID (N = 4)): 0 n (%)
- DCR (850 mg BID (N = 4)): 4 (100) (39.8, 100.0) n (%) (95%CI)
- ORR (850 mg BID (N = 4)): 0 (0, 60.2) n (%) (95%CI)
- mPFS (850 mg BID (N = 4)): 2.35 months
- mPFS (7 breast cancer patients): 1.71 months
- mPFS (7 patients whose best overall response was PD): 1.05 months
- mPFS (10 patients on high-level doses (≥700 mg BID)): 2.35 months
- mPFS (14 patients on low-level doses (<700 mg BID)): 1.80 months
- mPFS (17 patients with SD): 2.79 months
- complete response (CR) or partial response (PR) (24 subjects of efficacy analysis set): none of them achieved complete response (CR) or partial response (PR)
- BOR, CR (Breast cancer (N=7)): 0 n (%)
- BOR, PD (Breast cancer (N=7)): 2 (28.6) n (%)
- BOR, PR (Breast cancer (N=7)): 0 n (%)
- DCR (Breast cancer (N=7)): 71.4 (29.0, 96.3) n (%) (95%CI)
- ORR (Breast cancer (N=7)): 0 (0, 41.0) n (%) (95%CI)
- mPFS (Breast cancer (N=7)): 1.71 months
- BOR, CR (Lung cancer (N=10)): 0 n (%)
- BOR, PD (Lung cancer (N=10)): 4 (40.0) n (%)
- BOR, PR (Lung cancer (N=10)): 0 n (%)
- ORR (Lung cancer (N=10)): 0 (0, 30.9) n (%) (95%CI)
- mPFS (Lung cancer (N=10)): 2.12 months
- BOR, CR (Other types (N=7)): 0 n (%)
- BOR, PD (Other types (N=7)): 1 (14.3) n (%)
- BOR, PR (Other types (N=7)): 0 n (%)
- DCR (Other types (N=7)): 85.7 (42.1, 99.6) n (%) (95%CI)
- ORR (Other types (N=7)): 0 (0, 41) n (%) (95%CI)
- mPFS (Other types (N=7)): 1.91 months
- BOR, CR (Overall (N = 24)): 0 n (%)
- BOR, PD (Overall (N = 24)): 7 (29.2) n (%)
- BOR, PR (Overall (N = 24)): 0 n (%)
- DCR (Overall (N = 24)): 17 (70.8) (48.9, 87.4) n (%) (95%CI)
- ORR (Overall (N = 24)): 0 (0, 14.3) n (%) (95%CI)
- mPFS (Overall (N = 24)): 1.89 months
- median PFS (mPFS) (all subjects, PFS events in 24 patients): 1.89 months
- DCR (breast cancer): 71.4%
- disease control rate (DCR) (high-level doses (≥700 mg BID, n = 10)): 100%
- disease control rate (DCR) (low-level dose group (<700 mg BID, n = 14)): 50%
- DCR (lung cancer): 60%
- DCR (other cancers): 85.7%
- disease control rate (DCR) (overall, 24 patients): 70.8%
- mPFS (patients with lung cancer): 2.12 months
- disease control rate (DCR) (recommended dose (700 mg BID, n = 6)): 100%
- mPFS (seven patients with other cancer types): 1.91 months
